The NIST ThermoML archive (doi:10.1021/je050376y)

Experiment: xn = mol fraction of the nth substance listed
Settings: 101 kPa, Liquid

Cc1ccc(O)cc1 [4-methylphenol] + OCCO
Settings | mass density [kg/m3] | viscosity [mPa·s]
308.15 K, x1 = 0.1001 | 1088.89 | 12.15
308.15 K, x1 = 0.1999 | 1077.45 | 12.43
308.15 K, x1 = 0.2997 | 1067.32 | 12.43
308.15 K, x1 = 0.4001 | 1058.44 | 12.09
308.15 K, x1 = 0.4998 | 1050.66 | 11.54
308.15 K, x1 = 0.6002 | 1043.69 | 10.83
308.15 K, x1 = 0.7 | 1037.34 | 10.01
308.15 K, x1 = 0.8 | 1031.62 | 9.31
308.15 K, x1 = 0.8994 | 1026.55 | 8.726
308.15 K, x1 = 1 | 1021.98 | 8.444
313.15 K, x1 = 0.1001 | 1085.2 | 9.956
313.15 K, x1 = 0.1999 | 1073.68 | 10.18
313.15 K, x1 = 0.2997 | 1063.52 | 10.13
313.15 K, x1 = 0.4001 | 1054.58 | 9.821
313.15 K, x1 = 0.4998 | 1046.78 | 9.353
313.15 K, x1 = 0.6002 | 1039.82 | 8.735
313.15 K, x1 = 0.7 | 1033.45 | 8.103
313.15 K, x1 = 0.8 | 1027.72 | 7.526
313.15 K, x1 = 0.8994 | 1022.63 | 7.022
313.15 K, x1 = 1 | 1018.05 | 6.745
318.15 K, x1 = 0.1001 | 1081.49 | 8.319
318.15 K, x1 = 0.1999 | 1069.89 | 8.436
318.15 K, x1 = 0.2997 | 1059.67 | 8.358
318.15 K, x1 = 0.4001 | 1050.7 | 8.059
318.15 K, x1 = 0.4998 | 1042.88 | 7.662
318.15 K, x1 = 0.6002 | 1035.9 | 7.175
318.15 K, x1 = 0.7 | 1029.55 | 6.646
318.15 K, x1 = 0.8 | 1023.79 | 6.177
318.15 K, x1 = 0.8994 | 1018.7 | 5.739
318.15 K, x1 = 1 | 1014.09 | 5.471
323.15 K, x1 = 0.1001 | 1077.77 | 7.031
323.15 K, x1 = 0.1999 | 1066.09 | 7.069
323.15 K, x1 = 0.2997 | 1055.81 | 6.976
323.15 K, x1 = 0.4001 | 1046.81 | 6.721
323.15 K, x1 = 0.4998 | 1038.98 | 6.378
323.15 K, x1 = 0.6002 | 1031.99 | 5.971
323.15 K, x1 = 0.7 | 1025.61 | 5.523
323.15 K, x1 = 0.8 | 1019.85 | 5.136
323.15 K, x1 = 0.8994 | 1014.75 | 4.788
323.15 K, x1 = 1 | 1010.12 | 4.532
333.15 K, x1 = 0.1001 | 1070.28 | 5.121
333.15 K, x1 = 0.1999 | 1058.44 | 5.137
333.15 K, x1 = 0.2997 | 1048.06 | 5.029
333.15 K, x1 = 0.4001 | 1038.98 | 4.824
333.15 K, x1 = 0.4998 | 1031.11 | 4.607
333.15 K, x1 = 0.6002 | 1024.09 | 4.298
333.15 K, x1 = 0.7 | 1017.71 | 3.988
333.15 K, x1 = 0.8 | 1011.92 | 3.711
333.15 K, x1 = 0.8994 | 1006.8 | 3.461
333.15 K, x1 = 1 | 1002.09 | 3.245
343.15 K, x1 = 0.1001 | 1060.64 | 3.886
343.15 K, x1 = 0.1999 | 1048.68 | 3.849
343.15 K, x1 = 0.2997 | 1038.24 | 3.752
343.15 K, x1 = 0.4001 | 1029.09 | 3.602
343.15 K, x1 = 0.4998 | 1021.2 | 3.424
343.15 K, x1 = 0.6002 | 1014.17 | 3.201
343.15 K, x1 = 0.7 | 1007.79 | 2.995
343.15 K, x1 = 0.8 | 1001.99 | 2.786
343.15 K, x1 = 0.8994 | 996.84 | 2.588
343.15 K, x1 = 1 | 992.07 | 2.431
353.15 K, x1 = 0.1001 | 1055.58 | 2.934
353.15 K, x1 = 0.1999 | 1043.36 | 2.99
353.15 K, x1 = 0.2997 | 1032.81 | 2.915
353.15 K, x1 = 0.4001 | 1023.59 | 2.776
353.15 K, x1 = 0.4998 | 1015.62 | 2.648
353.15 K, x1 = 0.6002 | 1008.55 | 2.488
353.15 K, x1 = 0.7 | 1002.15 | 2.326
353.15 K, x1 = 0.8 | 996.33 | 2.173
353.15 K, x1 = 0.8994 | 991.1 | 2.022
353.15 K, x1 = 1 | 986.24 | 1.891
